What is called inhibition is the percentage by which the read-out fell short of the control. The low end stands for a weak effect, the high end for a strong effect. What is called % Inhibition is the change of the read-out against control, counted positive when it falls.

The record followed here is patent US4200642A, “Spiro-oxazolidindiones” (Pfizer Inc., priority 1978, dated 1980).

SMILES strings stand for the structures. Values joined by “and” are separate entries in the source; they are usually repeats but may differ in a detail not shown here. Equal values may be shown once.

The target of assay [1] is T1, aldose reductase (Bos taurus, UniProt P16116).
T1 construct: partially purified aldose reductase enzyme obtained from calf lens; from tissue; host or cells: calf lens
The experiment in a line: inhibition of aldose reductase enzyme activity (partially purified enzyme from calf lens). It counts as biochemical. The settings on record: / indicates results of duplicate tests; for inhibition at 1 µM: 10^-6 M. On the procedure: Spiro-oxazolidindiones prepared as described in the previous examples were tested for their ability to reduce or inhibit aldose reductase enzyme activity, following the procedure described in U.S. Pat. No. 3,821,383 and based on the procedure of Hayman et al., Journal of Biological Chemistry, 240, 877 (1965). The substrate employed was partially purified aldose reductase enzyme obtained from calf lens. The results obtained with each compound at a concentration of 10^-6 M are expressed as percent inhibition of enzyme activity.

Assay [2] has as its system sorbitol accumulation in the sciatic nerve of streptozotocinized (i.e., diabetic) rats. Briefly: inhibition of sorbitol accumulation in the sciatic nerve of streptozotocinized (diabetic) rats. It counts as in vivo. As to conditions: measured at 27 hours, vs untreated, values below 20 not always significant; for % Inhibition at mg/kg Dosage 1.5: 1.5 mg/kg orally at 4, 8 and 24 hours after streptozotocin. On the procedure: Spiro-oxazolidindiones prepared as described in the above examples were tested for their ability to reduce or inhibit sorbitol accumulation in the sciatic nerve of streptozotocinized (i.e., diabetic) rats by the procedure essentially described in U.S. Pat. No. 3,821,383. In the present study, the amount of sorbitol accumulation in the sciatic nerves was measured 27 hours after induction of diabetes. The compounds were administered orally at the dose levels indicated at 4, 8 and 24 hours following the administration of streptozotocin. The results obtained in this manner are presented below in terms of percent inhibition afforded by the test compound as compared to the case where no compound was administered (i.e., the untreated animal where sorbitol levels normally rise from approximately […]. tissue to as high as 400 mM/g. tissue in the 27-hour test period). In this test values below 20 are not always experimentally and statistically significant.

In the case of `O=C1NC(=O)C2(CCOc3ccc(F)cc32)O1` (stereo not drawn) [Example 28, 6-Fluoro-spiro[4H-2,3-dihydrobenzopyran(4,5')oxazolidin]-2',4'-dione], in assay [1], the inhibition at 1 µM came to 65%. For the same compound, the “% Inhibition at mg/kg Dosage 1.5” value in assay [2] came to 8%.
For `O=C1NC(=O)C2(CCOc3ccc(Cl)cc32)O1` (stereo not drawn) [Example 3, 6-Chloro-spiro[4H-2,3-dihydrobenzopyran(4,5')oxazolidin]-2',4'-dione], in assay [1], at 1 µM the inhibition was 86% and the “% Inhibition at 10^-6 M” value was 68%. Further, the “% Inhibition at mg/kg Dosage 1.5” value in assay [2] amounted to 28%.
Taken in the same sequence, the figures for `O=C1NC(=O)C2(CCOc3ccc(Br)cc32)O1` (stereo not drawn) [Example 29, 6-Bromo-spiro[4H-2,3-dihydrobenzopyran(4,5')oxazolidin]-2',4'-dione] were 100%, 87% and 35%.
In the case of `O=C1NC(=O)C2(CCSc3ccc(F)cc32)O1` (stereo not drawn) [Example 31, 6-Fluoro-spiro[4H-2,3-dihydrobenzothiopyran(4,5')oxazolidin]-2',4'-dione], in assay [1], at 1 µM the inhibition was 61%.
Consider `O=C1NC(=O)C2(CCSc3ccccc32)O1` (stereo not drawn) [Example 30, Spiro[4H-2,3-dihydrobenzothiopyran(4,5')oxazolidin]-2',4'-dione], for which, in assay [1], testing at 1 µM gave an inhibition of 42%.
On to `Cc1cc(Cl)cc2c1OCCC21OC(=O)NC1=O` (stereo not drawn) [Example 33, 6-Chloro-8-methyl-spiro[4H-2,3-dihydrobenzopyran(4,5')oxazolidin]-2',4'-dione], for which, in assay [1], the inhibition at 1 µM amounted to 81% and the “% Inhibition at 10^-6 M” value is on record as 99%. Besides, the “% Inhibition at mg/kg Dosage 1.5” value in assay [2] is on record as 33%.
For the compound `O=C1NC(=O)C2(CCSc3ccc(Cl)cc32)O1` (stereo not drawn) [Example 34, 6-Chloro-spiro[4H-2,3-dihydrobenzothiopyran(4,5')oxazolidin]-2',4'-dione], in assay [1], the “% Inhibition at 10^-6 M” value is 70% and 100%. The “% Inhibition at mg/kg Dosage 1.5” value in assay [2] came out at 14%.
As for `O=C1NC(=O)C2(CCOc3ccc(Cl)cc32)O1` (single isomer, unassigned; (-)) [Example 35, (-)-6-Chloro-spiro[4H-2,3-dihydrobenzopyran(4,5')oxazolidin]-2',4'-dione], the inhibition at 1 µM in assay [1] came to 96%. In assay [2], the “% Inhibition at mg/kg Dosage 1.5” value was determined as 41%. Moreover, in assay [2] (5 mg/kg orally at 4, 8 and 24 hours after streptozotocin), the “% Inhibition at mg/kg Dosage 5” value came to 67%. The “% Inhibition at mg/kg Dosage 15” value in assay [2] (15 mg/kg orally at 4, 8 and 24 hours after streptozotocin) is on record as 88%.
Turning to `O=C1NC(=O)C2(CCOc3c(Cl)cc(Cl)cc32)O1` (stereo not drawn) [Example 32, 6,8-Dichloro-spiro[4H-2,3-dihydrobenzopyran(4,5')oxazolidin]-2',4'-dione], the inhibition at 1 µM in assay [1] was found to be 100%. Further, the “% Inhibition at mg/kg Dosage 1.5” value in assay [2] came to 44%.
